Measurements from patent publication US20130244929A1 (priority 2010, published 2013).
Read-outs that look alike come from different tables or passages of the source.

Tests used:
SpsB = molecular target: T1, SpsB (Staphylococcus aureus, UniProt P0A070); experiment: Inhibition of SpsB enzyme activity (fluorescence-based assay, bacterial membrane fraction); type: biochemical
T1 construct: using a bacterial membrane fraction as a source of SpsB; from tissue
T1 sequence (P0A070 1-191): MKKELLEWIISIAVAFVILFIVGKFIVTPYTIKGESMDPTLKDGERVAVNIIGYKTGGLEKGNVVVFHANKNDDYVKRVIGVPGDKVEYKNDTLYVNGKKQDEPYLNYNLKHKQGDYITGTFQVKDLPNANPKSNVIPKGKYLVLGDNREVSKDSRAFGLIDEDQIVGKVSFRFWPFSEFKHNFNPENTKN
Protocol: Signal peptidase enzyme activity was measured in a fluorescence-based assay using a bacterial membrane fraction as a source of SpsB (See Bruton et al., 2003, Eur J Med Chem 38:351-356). The SpsB substrate is a synthetic lipopeptide, decanoyl-K(DABCYL)-TPTAKA↓ASKKD-D(EDANS)—NH2 (prepared by JPT Peptide Technologies, Berlin, Germany). Assays were performed with 20 μM peptide substrate (Km≈5 μM) and reactions were initiated with enzyme addition (final protein concentration of 0.6 mg/mL). SpsB mediated cleavage of the peptide substrate was detected as an increase in fluorescence (excitation 340 nm/emission 460 nm).

[1] = test system: MB 5393 (COL), a methicillin-resistant S. aureus strain; experiment: Determination of minimum and synergistic inhibitory concentration; type: cell-based; settings: for SIC: presence of imipenem (4 μg/mL); for MIC: Staphylococcus aureus
Protocol: MB 5393 (COL), a methicillin-resistant S. aureus strain, was inoculated into Trypticase Soy Broth (TSB, BBL) and grown in a humidified incubator for 18 hours with rotary shaking at 220 rpm and kept on ice until used.
A quantity of imipenem (Merck Chemical Collection) was weighed out and dissolved into sterile 10 mM MOPS buffer at pH 7. This solution was diluted to 1600 μg/mL, 200 μg/mL, and 25 μg/mL and filter-sterilized through a 0.45 μm filter. From these solutions, seven 1:2 serial dilutions were prepared using sterile 10 mM MOPS buffer at pH 7. The final concentration ranges tested were 128 to 2 μg/mL, 16 to […], and 2 to 0.03 μg/mL. The solutions were kept refrigerated until used.
Test compounds (EXAMPLES 1-67) were prepared in sterile water or DMSO at a concentration of 3.2 mg/mL. From this solution, 11 serial 1:2 dilutions were prepared using sterile water. The final concentration range tested was 64 to 0.0313 μg/mL. The solutions were kept refrigerated until used.
Two-fold serial dilutions of test compounds were tested in the presence and absence of subinhibitory concentrations of imipenem (4 μg/mL) in 96-well U bottom microliter dishes in microbiological growth media. The plates were inoculated with bacterial cells to a final concentration of ˜5×10^5 CFU/mL. Test plates were incubated stationery at 37° C. for 22-24 hours.
After 22 hours of incubation, the Minimum inhibitory concentrations (MICs) were determined, defined as the lowest concentration of antibiotic that prevented all visible growth in the absence of imipenem. Synergistic inhibitory concentrations (SICs) were determined, defined as the lowest concentration of antibiotic that prevented all visible growth in the presence of imipenen.

[2] = MRSA COL, absence of imipenem, 22 hours, read-out: MIC
[3] = 20 μM peptide substrate, read-out: SpsB IC50

SMILES | IC50 (SpsB) | SIC ([1]; MRSA COL, 22 hours) | MIC ([1]; MRSA, 22 h) | MIC [1, 2] | IC50 (SpsB; [3])
CCCCCCCCCc1ccc(-c2ccc3sc(C(=O)NCCC(=O)N[C@@H](CCCCN)C(=O)N(C)[C@@H]4C(=O)N[C@@H](C)C(=O)N[C@H](C(=O)O)Cc5ccc(O)c(c5)-c5cc4ccc5O)cc3c2)cc1 [EXAMPLE 45] | < 10 nM | G (G: SIC <0.0625) | 1 to 8 µg/mL | – | –
CCCc1ccc(-c2ccc(C(=O)NCCC(=O)NC(CCCCN)C(=O)N(C)[C@@H]3C(=O)N[C@@H](C)C(=O)N[C@H](C(=O)O)Cc4cccc(c4)-c4cccc3c4)cc2)cc1.O=C(O)C(F)(F)F (stereo partly drawn) [EXAMPLE 9, 6-[[(7S,10S,13S)-13-carboxy-10-methyl-8,11-dioxo-9,12-diazatricyclo[13.3.1.1^2,6]icosa-1(19),2(20),3,5,15,17-hexaen-7-yl](methyl)amino]-6-oxo-5-[(3-{[(4′-propylbiphenyl-4-yl)carbonyl]amino}propanoyl)amino]hexan-1-aminium trifluoroacetate] | 10 to 50 nM | H (H: SIC 0.062-1) | – | > 8 µg/mL | –
C[C@@H]1NC(=O)[C@@H](N(C)C(=O)[C@H](CCCCN)NC(=O)CCNC(=O)c2ccc(-c3ccc(C4CCCCC4)cc3)cc2)c2ccc(O)c(c2)-c2cc(ccc2O)C[C@@H](C(=O)O)NC1=O [EXAMPLE 49] | < 10 nM | G (G: SIC <0.0625) | < 1 µg/mL | – | –
CCCc1ccc(-c2ccc(C(=O)NCCC(=O)N[C@@H](CCCN)C(=O)N(C)[C@@H]3C(=O)N[C@@H](C)C(=O)N[C@H](C(=O)O)Cc4ccc(O)c(c4)-c4cc3ccc4O)cc2)cc1 [EXAMPLE 55] | < 10 nM | H (H: SIC 0.062-1) | < 1 µg/mL | – | –
CCCCCCCc1ccc2cc(C(=O)NCCC(=O)N[C@@H](CCCCN)C(=O)N(C)[C@@H]3C(=O)N[C@@H](C)C(=O)N[C@H](C(=O)O)Cc4ccc(O)c(c4)-c4cc3ccc4O)cnc2c1 [EXAMPLE 61] | 10 to 50 nM | H (H: SIC 0.062-1) | < 1 µg/mL | – | –
CCCCc1ccc(-c2ccc(C(=O)NCCC(=O)N[C@@H](CCCCN)C(=O)N(C)[C@@H]3C(=O)N[C@@H](C)C(=O)N[C@H](C(=O)O)Cc4ccc(O)c(c4)-c4cc3ccc4O)cc2)cc1 [EXAMPLE 51] | < 10 nM | G (G: SIC <0.0625) | < 1 µg/mL | – | –
CCCCCCCOCc1ccc(-c2ccc(C(=O)NCCC(=O)N[C@@H](CCCCN)C(=O)N(C)[C@@H]3C(=O)N[C@@H](C)C(=O)N[C@H](C(=O)O)Cc4ccc(O)c(c4)-c4cc3ccc4O)cc2)cc1 [EXAMPLE 36] | < 10 nM | G (G: SIC <0.0625) | < 1 µg/mL | – | –
CCCc1ccc(-c2ccc(C(=O)NCCC(=O)N(CCCCN)CC(=O)N(C)[C@@H]3C(=O)N[C@@H](C)C(=O)N[C@H](C(=O)O)Cc4ccc(OC)c(c4)-c4cc3ccc4OC)cc2)cc1.O=C(O)C(F)(F)F [EXAMPLE 11, 4-[{2-[[(7S,10S,13S)-13-carboxy-3,18-dimethoxy-10-methyl-8,11-dioxo-9,12-diazatricyclo[13.3.1.1^2,6]icosa-1(19),2(20),3,5,15,17-hexaen-7-yl](methyl)amino]-2-oxoethyl}(3-{[(4′-propylbiphenyl-4-yl)carbonyl]amino}propanoyl)amino]butan-1-aminium trifluoroacetate] | – | H (H: SIC 0.062-1) | – | > 8 µg/mL | 10 to 50 nM
CCC[C@H]1CC[C@H](c2ccc(-c3ccc(C(=O)NCCC(=O)N[C@@H](CCCCN)C(=O)N(C)[C@@H]4C(=O)N[C@@H](C)C(=O)N[C@H](C(=O)O)Cc5ccc(O)c(c5)-c5cc4ccc5O)cc3)cc2)CC1 [EXAMPLE 46] | < 10 nM | G (G: SIC <0.0625) | < 1 µg/mL | – | –
CCCCCCCCCc1ccc(-c2ncc(C(=O)NCCC(=O)N[C@@H](CCCCN(C)C)C(=O)N(C)[C@@H]3C(=O)N[C@@H](C)C(=O)N[C@H](C(=O)O)Cc4ccc(O)c(c4)-c4cc3ccc4O)cn2)cc1 [EXAMPLE 34] | < 10 nM | G (G: SIC <0.0625) | < 1 µg/mL | – | –
CCCc1ccc(-c2ccc(C(=O)NCCC(=O)N[C@H](CCCCN)C(=O)N(C)[C@@H]3C(=O)N[C@@H](C)C(=O)N[C@H](CO)Cc4ccc(O)c(c4)-c4cc3ccc4O)cc2)cc1.O=C(O)C(F)(F)F (mixture of isomers) [EXAMPLE 5, (5R,S)-6-[[(7S,10S,13S)-3,18-dihydroxy-13-(hydroxymethyl)-10-methyl-8,11-dioxo-9,12-diazatricyclo[13.3.1.1^2,6]icosa-1(19),2(20),3,5,15,17-hexaen-7-yl](methyl)amino]-6-oxo-5-[(3-{[(4′-propylbiphenyl-4-yl)carbonyl]amino}propanoyl)amino]hexan-1-aminium trifluoroacetate] | – | H (H: SIC 0.062-1) | – | < 1 µg/mL | < 10 nM
COc1ccc2cc1-c1cc(ccc1OC)[C@H](N(C)C(=O)[C@H](CCCCN)NC(=O)CCNC(=O)c1ccc(-c3ccc(CCCCCCCCC(C)(C)O)cc3)cc1)C(=O)N[C@@H](C)C(=O)N[C@H](C(=O)O)C2 [EXAMPLE 56] | < 10 nM | H (H: SIC 0.062-1) | 1 to 8 µg/mL | – | –
CCCCCCCCCc1ccc(-c2ccc(C(=O)NCCC(=O)N[C@@H](CCCCN)C(=O)N(C)[C@@H]3C(=O)N[C@@H](C)C(=O)N[C@H](C(=O)O)Cc4ccc(O)c(c4)-c4cc3ccc4O)c3ccccc23)cc1 [EXAMPLE 52] | < 10 nM | G (G: SIC <0.0625) | 1 to 8 µg/mL | – | –
C[C@@H]1NC(=O)[C@@H](N(C)C(=O)[C@H](CCCCN)NC(=O)CCNC(=O)c2coc(CCCCCCCCc3ccccc3)n2)c2ccc(O)c(c2)-c2cc(ccc2O)C[C@@H](C(=O)O)NC1=O [EXAMPLE 64] | 10 to 50 nM | G (G: SIC <0.0625) | < 1 µg/mL | – | –
CCCCCCCCCc1ccc(-c2ccc(C(=O)NCCC(=O)N[C@@H](CCCCN)C(=O)N(C)[C@@H]3C(=O)N[C@@H](C)C(=O)N[C@H](C(=O)O)Cc4ccc(O)c(c4)-c4cc3ccc4O)cc2C)cc1 [EXAMPLE 58] | < 10 nM | G (G: SIC <0.0625) | < 1 µg/mL | – | –
C[C@@H]1NC(=O)[C@@H](N(C)C(=O)[C@@H]2CCCN2C(=O)CCNC(=O)c2ccc(CCCCCCCCc3ccccc3)cc2)c2ccc(O)c(c2)-c2cc(ccc2O)C[C@@H](C(=O)O)NC1=O [EXAMPLE 59] | < 10 nM | H (H: SIC 0.062-1) | 1 to 8 µg/mL | – | –
CCCCCCCCCCc1ccc2cc(C(=O)NCCC(=O)N3CCCC3C(=O)N(C)[C@@H]3C(=O)N[C@@H](C)C(=O)N[C@H](C(=O)O)Cc4ccc(O)c(c4)-c4cc3ccc4O)ccc2c1 (stereo in doubt) [EXAMPLE 14, (8S,11S,14S)-3,18-dihydroxy-11-methyl-14-(methyl{[(2R)-1-{3-[(6-decyl-2-naphthoyl)amino]propanoyl}pyrrolidin-2-yl]carbonyl}amino)-10,13-dioxo-9,12-diazatricyclo[13.3.1.1^2,6]icosa-1(19),2(20),3,5,15,17-hexaene-8-carboxylic acid] | < 10 nM | G (G: SIC <0.0625) | – | < 1 µg/mL | –
CCCc1ccc(-c2ccc(C(=O)NCCC(=O)N[C@H](CCCCN)C(=O)N(C)[C@@H]3C(=O)N[C@@H](C)C(=O)N[C@H](C(=O)O)Cc4ccc(O)c(c4)-c4cc3ccc4O)cc2)cc1.O=C(O)C(F)(F)F [EXAMPLE 4, (5R)-6-[[(7S,10S,13S)-13-carboxy-3,18-dihydroxy-10-methyl-8,11-dioxo-9,12-diazatricyclo[13.3.1.1^2,6]icosa-1(19),2(20),3,5,15,17-hexaen-7-yl](methyl)amino]-6-oxo-5-[(3-{[(4′-propylbipherryl-4-yl)carbonyl]amino}propanoyl)amino]hexan-1-aminium trifluoroacetate] | > 50 nM | I (I: SIC >1) | – | > 8 µg/mL | –
CCCCCCCCCc1ccc(-c2nc(C(=O)NCCC(=O)N[C@@H](CCCCN)C(=O)N(C)[C@@H]3C(=O)N[C@@H](C)C(=O)N[C@H](C(=O)O)Cc4ccc(O)c(c4)-c4cc3ccc4O)cs2)cc1 [EXAMPLE 41] | < 10 nM | G (G: SIC <0.0625) | < 1 µg/mL | – | –
C[C@@H]1NC(=O)[C@@H](N(C)C(=O)[C@H](CCCCN)NC(=O)CCNC(=O)c2ccc(CCCCCCCc3ccccc3)cc2)c2ccc(O)c(c2)-c2cc(ccc2O)C[C@@H](C(=O)O)NC1=O [EXAMPLE 38] | < 10 nM | G (G: SIC <0.0625) | < 1 µg/mL | – | –
